Measurements as given in ChEMBL document CHEMBL1201862, “PubChem BioAssay data set” (2004).
Calls of active or inactive are those of the source.

How the values were obtained:
[1] = molecular target: T1, Zinc finger protein mex-5 (Caenorhabditis elegans, UniProt Q9XUB2); assay: MEX-5/TCR-2 RNA interaction inhibitors, dose response, biochemical, C. elegans, fluorescence polarization (AID 1960)
T1 sequence (Q9XUB2 whole entry): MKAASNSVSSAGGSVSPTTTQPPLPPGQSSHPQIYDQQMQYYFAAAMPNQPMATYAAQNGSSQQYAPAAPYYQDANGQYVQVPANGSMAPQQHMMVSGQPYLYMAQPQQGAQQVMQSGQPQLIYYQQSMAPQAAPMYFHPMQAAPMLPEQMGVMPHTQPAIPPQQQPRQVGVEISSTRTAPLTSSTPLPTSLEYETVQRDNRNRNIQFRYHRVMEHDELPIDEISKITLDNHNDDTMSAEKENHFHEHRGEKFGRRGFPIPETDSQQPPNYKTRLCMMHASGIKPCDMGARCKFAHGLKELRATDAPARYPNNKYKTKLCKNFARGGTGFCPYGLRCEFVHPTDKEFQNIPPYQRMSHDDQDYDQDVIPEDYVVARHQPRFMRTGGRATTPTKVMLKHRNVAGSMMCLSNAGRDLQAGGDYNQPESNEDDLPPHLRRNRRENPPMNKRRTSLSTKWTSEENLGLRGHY

[2] = A cytotoxicity screen of small molecule inhibitors of the PhoP region in Salmonella typhi identified in the primary screen. [Related pubchem assays: 1850, 1864, 1985 ]; type: functional
[3] = molecular target: T2, RNA-binding protein pos-1 (Caenorhabditis elegans, UniProt G5EF15); assay: inhibitors of POS-1/mex-3 RNA binding, dose response, biochemical, fluorescence polarization (AID 1964);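 note: purified POS-1 fused to maltose binding protein made in E. coli; potency of compounds blocking POS-1 binding to fluorescent RNA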
T2 sequence (G5EF15 whole entry): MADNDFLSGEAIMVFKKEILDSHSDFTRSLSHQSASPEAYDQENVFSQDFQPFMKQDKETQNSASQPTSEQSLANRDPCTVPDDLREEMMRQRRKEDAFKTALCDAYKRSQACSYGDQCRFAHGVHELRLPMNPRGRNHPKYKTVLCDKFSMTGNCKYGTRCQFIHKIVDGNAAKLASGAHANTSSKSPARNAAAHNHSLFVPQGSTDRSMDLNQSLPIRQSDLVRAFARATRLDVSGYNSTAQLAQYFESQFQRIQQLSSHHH

[4] = Luminescence Cell-Based Dose Confirmation HTS to Identify Inhibitors of Platelet Dense Granule Release. [Related pubchem assays: 1663 (Primary HTS), 1678 (Summary of Project)]; type: functional
[5] = molecular target: Luciferin 4-monooxygenase (Photinus pyralis, UniProt P08659); assay: firefly luciferase enzyme inhibitors, dose response, biochemical, luminescence (AID 1891)
[6] = molecular target: T3, Short transient receptor potential channel 4 (Mus musculus, UniProt Q9QUQ5); assay: mouse TRPC4 channel activators, dose response, cell-based, HEK293 TRPC4/mu-opioid, Fluo-4 calcium (AID 434937); type: functional
T3 sequence (Q9QUQ5 whole entry): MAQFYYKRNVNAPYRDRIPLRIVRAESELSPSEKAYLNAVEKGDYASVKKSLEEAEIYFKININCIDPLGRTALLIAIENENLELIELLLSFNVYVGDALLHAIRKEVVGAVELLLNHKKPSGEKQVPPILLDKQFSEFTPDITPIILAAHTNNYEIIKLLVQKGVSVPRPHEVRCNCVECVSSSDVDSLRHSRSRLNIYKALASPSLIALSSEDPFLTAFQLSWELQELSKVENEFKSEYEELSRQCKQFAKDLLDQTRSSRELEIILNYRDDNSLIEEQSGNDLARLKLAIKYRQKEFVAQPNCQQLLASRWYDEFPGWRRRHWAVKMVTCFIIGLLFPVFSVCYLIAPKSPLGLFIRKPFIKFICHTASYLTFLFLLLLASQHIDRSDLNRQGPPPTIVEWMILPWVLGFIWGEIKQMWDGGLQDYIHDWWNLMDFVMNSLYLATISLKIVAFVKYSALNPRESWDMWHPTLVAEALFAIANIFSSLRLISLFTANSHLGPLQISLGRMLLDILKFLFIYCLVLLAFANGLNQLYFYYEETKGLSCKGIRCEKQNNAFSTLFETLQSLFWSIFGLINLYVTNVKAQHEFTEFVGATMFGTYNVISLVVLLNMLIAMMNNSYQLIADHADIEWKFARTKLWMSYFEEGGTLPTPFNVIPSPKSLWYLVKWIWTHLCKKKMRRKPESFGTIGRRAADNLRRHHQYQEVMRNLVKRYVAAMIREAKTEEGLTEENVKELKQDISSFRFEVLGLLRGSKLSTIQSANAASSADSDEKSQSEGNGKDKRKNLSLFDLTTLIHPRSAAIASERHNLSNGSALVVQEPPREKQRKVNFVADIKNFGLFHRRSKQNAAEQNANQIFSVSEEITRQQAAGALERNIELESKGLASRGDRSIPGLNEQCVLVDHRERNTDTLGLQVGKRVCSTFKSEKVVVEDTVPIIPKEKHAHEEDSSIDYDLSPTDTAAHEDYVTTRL

[7] = growth suppression of PTEN-null colon cells, dose response, cell-based, HCT116 PTEN knockout (AID 1047); type: functional;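 note: HCT116 colon tumor cells with PTEN knocked out; cells exposed to compound for 60 hours before readout; potency for loss of cell viability measured by luminescence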
[8] = growth suppression of beta-catenin-knockout colon cells, dose response, cell-based, HCT116, human colon tumor (AID 1045); type: functional;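 note: HCT116 colon tumor cells with beta catenin knocked out; cells exposed to compound for 60 hours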
Aminopeptidase N = molecular target: T4, Aminopeptidase N (Plasmodium falciparum FcB1/Columbia, UniProt O96935); assay: P. falciparum M1AAP inhibitors, biochemical, fluorogenic H-Leu-NHMec substrate, 1536-well (AID 1445); design: species or system Plasmodium falciparum 3D7, 3D7
T4 sequence (O96935 whole entry): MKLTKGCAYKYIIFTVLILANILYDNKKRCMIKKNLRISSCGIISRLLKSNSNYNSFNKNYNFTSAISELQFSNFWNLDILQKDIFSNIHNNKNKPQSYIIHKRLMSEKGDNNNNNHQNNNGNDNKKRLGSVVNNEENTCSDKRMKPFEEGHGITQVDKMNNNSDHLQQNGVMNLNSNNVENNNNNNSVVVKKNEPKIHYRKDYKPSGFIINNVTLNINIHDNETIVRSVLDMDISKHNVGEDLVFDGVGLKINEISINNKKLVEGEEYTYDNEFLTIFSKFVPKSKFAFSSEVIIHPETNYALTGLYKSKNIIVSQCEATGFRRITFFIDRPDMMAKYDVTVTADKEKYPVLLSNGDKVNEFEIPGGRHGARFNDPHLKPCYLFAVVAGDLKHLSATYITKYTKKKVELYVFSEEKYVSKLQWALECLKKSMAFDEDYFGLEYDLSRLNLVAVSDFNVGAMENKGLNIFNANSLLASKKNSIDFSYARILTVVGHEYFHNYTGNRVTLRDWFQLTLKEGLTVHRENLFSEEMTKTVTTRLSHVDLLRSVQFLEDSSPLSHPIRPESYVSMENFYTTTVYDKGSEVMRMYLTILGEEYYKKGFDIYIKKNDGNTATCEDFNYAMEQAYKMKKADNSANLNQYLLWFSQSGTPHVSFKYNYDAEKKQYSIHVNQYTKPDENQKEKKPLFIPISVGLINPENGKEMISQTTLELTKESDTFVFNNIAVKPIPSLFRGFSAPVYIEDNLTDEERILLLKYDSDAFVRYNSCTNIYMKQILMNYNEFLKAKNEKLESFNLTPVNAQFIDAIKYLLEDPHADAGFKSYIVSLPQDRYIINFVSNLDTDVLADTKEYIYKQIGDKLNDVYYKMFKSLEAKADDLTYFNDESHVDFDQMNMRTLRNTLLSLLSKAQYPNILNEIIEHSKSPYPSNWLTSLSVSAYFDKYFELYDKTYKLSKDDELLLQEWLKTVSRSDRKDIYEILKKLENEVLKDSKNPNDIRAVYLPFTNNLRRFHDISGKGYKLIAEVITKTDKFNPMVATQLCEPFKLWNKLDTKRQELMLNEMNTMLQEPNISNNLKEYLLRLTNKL

[9] = molecular target: T5, Polyadenylate-binding protein 1 (Homo sapiens, UniProt P11940); assay: PABP1 MLLE–PAM2 interaction inhibitors, dose response, miRNA deadenylation inhibitor project, biochemical, fluorescence polarization, Cy5-PAM2 peptide, secondary (AID 602260); type: functional; conditions: read-out: IC50_Mean
[10] = molecular target: T5, Polyadenylate-binding protein 1; assay: PABP1 MLLE–PAM2 binding inhibitor potency, dose response, biochemical, fluorescence polarization, FITC-PAM2 peptide (AID 602259); type: functional; conditions: read-out: IC50_Mean
[11] = inhibitors of intracellular T. cruzi replication, confirmation, NIH3T3 host cells, beta-gal luminescence (AID 2044); type: functional, cell-based;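 note: intracellular parasites grown in NIH/3T3 mouse fibroblasts as host cells; luminescent beta-galactosidase reporter signal from transgenic T. cruzi replicating inside host cells; inhibitors lower the luminescence signal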
[12] = cytotoxicity toward NIH3T3 fibroblasts, dose response, counter-screen, cell-based, ATP luminescence, mouse fibroblasts (AID 2010); type: functional;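 note: cells exposed to compound for about 90 hours before reading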
[13] = inhibitors of SNCA 5'UTR-driven reporter translation, confirmation, H4 neuroglioma cells, luminescence (AID 1988); type: functional, cell-based
[14] = molecular target: T6, DNA repair protein RAD52 homolog (Homo sapiens, UniProt P43351); type: functional, biochemical
T6 sequence (P43351 whole entry): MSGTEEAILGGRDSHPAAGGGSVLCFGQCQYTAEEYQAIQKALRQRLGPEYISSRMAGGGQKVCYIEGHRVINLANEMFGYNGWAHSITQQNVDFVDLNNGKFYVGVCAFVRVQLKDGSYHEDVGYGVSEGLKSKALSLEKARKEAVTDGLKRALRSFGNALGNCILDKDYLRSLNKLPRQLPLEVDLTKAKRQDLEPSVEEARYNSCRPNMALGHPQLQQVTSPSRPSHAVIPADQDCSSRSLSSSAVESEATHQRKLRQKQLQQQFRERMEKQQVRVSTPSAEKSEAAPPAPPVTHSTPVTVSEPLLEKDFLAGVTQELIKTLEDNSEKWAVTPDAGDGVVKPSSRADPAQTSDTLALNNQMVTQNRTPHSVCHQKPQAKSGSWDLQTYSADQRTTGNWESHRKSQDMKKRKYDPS

[15] = Luminescence Cell-Based Dose Response HTS to Identify Inhibitors of 5'UTR Stem-Loop Driven Prion Protein mRNA Translation in H4 Neuroglioblastoma Cells. [Related pubchem assays: 1827 (Project Summary), 1813 (Primary HTS)]; type: functional
[16] = inhibitors of firefly luciferase expression or activity, dose response, H4 neuroglioma cells, luminescence (AID 1990); type: functional, cell-based
Cytochrome P450 2C9 = Cytochrome P450 2C9 (Homo sapiens, UniProt P11712)
Chain of Cytochrome P450 2C9 (P11712 whole entry): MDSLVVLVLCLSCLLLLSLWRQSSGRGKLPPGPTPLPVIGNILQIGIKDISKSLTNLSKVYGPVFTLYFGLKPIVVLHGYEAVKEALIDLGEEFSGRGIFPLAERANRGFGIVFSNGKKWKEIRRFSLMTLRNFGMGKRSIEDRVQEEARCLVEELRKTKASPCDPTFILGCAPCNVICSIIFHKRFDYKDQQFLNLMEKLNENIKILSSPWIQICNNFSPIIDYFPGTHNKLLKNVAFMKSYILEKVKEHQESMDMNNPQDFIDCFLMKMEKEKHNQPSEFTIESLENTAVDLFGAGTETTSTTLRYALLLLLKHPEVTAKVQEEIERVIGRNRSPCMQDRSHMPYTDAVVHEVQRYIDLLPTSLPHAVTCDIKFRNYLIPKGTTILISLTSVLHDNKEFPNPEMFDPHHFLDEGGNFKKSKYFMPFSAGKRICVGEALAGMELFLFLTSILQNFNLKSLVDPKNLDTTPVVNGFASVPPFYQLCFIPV

T5 sequence (P11940 whole entry): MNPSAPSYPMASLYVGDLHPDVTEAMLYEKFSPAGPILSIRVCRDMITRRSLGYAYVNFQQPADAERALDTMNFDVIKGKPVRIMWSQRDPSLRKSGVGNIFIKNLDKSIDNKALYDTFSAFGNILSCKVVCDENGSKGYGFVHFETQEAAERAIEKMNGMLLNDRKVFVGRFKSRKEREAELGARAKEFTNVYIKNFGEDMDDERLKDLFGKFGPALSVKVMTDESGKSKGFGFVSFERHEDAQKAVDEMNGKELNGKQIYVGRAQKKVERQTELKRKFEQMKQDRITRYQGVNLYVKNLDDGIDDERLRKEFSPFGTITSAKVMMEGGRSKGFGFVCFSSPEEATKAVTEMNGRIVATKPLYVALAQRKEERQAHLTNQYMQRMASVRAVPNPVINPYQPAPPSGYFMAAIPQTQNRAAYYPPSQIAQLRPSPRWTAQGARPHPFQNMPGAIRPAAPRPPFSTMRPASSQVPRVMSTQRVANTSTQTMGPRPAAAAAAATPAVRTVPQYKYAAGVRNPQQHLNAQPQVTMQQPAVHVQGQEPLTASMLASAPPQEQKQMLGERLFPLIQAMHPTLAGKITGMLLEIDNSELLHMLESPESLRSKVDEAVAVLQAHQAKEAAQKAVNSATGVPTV
Chain of Luciferin 4-monooxygenase (P08659 whole entry): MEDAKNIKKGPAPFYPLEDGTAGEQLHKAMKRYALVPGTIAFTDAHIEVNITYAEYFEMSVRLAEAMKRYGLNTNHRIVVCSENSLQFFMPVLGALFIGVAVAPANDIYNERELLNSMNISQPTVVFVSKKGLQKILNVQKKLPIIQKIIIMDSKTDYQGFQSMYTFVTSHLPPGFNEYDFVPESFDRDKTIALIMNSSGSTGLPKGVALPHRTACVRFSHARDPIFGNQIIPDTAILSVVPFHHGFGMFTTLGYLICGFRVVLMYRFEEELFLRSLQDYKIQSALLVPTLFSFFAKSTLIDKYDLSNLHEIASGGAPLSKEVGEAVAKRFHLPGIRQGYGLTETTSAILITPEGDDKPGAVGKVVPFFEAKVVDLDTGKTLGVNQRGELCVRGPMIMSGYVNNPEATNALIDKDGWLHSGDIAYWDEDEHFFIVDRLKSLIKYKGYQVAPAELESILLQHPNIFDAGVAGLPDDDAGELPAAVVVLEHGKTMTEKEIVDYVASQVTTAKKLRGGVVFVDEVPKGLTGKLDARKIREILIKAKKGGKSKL

Q: Which results are given for `Cc1cccc(NC(=O)c2sc3nc(-c4ccccc4)cn3c2C)n1`?
A: EC50 [1]: > 300 µM (not active); EC50 [2]: > 50 µM (active); EC50 [3]: > 300 µM (not active)

Q: For `O=C(/C=C/c1ccc(O)cc1)c1ccccc1` [4-HYDROXYCHALCONE], which EC50 [4] is on record?
A: Its EC50 is < 701 nM (active).

Q: And the EC50 [2]?
A: Its EC50 is > 50 µM (active).

Q: And the EC50 [5]?
A: Its EC50 is < 88 nM (active).

Q: Which EC50 [6] does the source give for `Cc1sc2nc(CSc3ccccc3)nc(NCCN(C)C)c2c1C` here?
A: The EC50 was 2.99 µM (active).

Q: Which EC50 [7] does the source give for `Cc1ccccc1C(O)(Cc1ccccc1)C1CN2CCC1CC2` (configuration not stated) here?
A: Its EC50 is 14.8 µM (active).

Q: What about the EC50 [6] of the same compound?
A: Its EC50 is 5.31 µM (active).

Q: What about the EC50 [8] of the same compound?
A: The EC50 was 14.5 µM (active).

Q: Which IC50 (Aminopeptidase N) does the source give for `COCCOC(=O)c1c(C)oc2ccc(NS(=O)(=O)c3cccs3)cc12` here?
A: Its IC50 is 48.5 µM (active).

Q: What does the source list for `NC(=O)SCC(=O)Nc1ccc(Cl)c(Cl)c1`?
A: EC50 [7]: 50.8 µM (active); IC50 [9]: > 66 µM (inactive); EC50 [8]: 31 µM (active); EC50 [2]: > 50 µM (active); IC50 [10]: > 66 µM (inactive)

Q: For `Cc1cccc(C)c1OCC(O)CN` (configuration not stated), which EC50 [6] is on record?
A: Its EC50 is 4.22 µM (active).

Q: Which results are given for `CCC(Sc1nc2cc[nH]cc-2n1)C(=O)Nc1ccc(C)c(Cl)c1` (configuration not stated)?
A: EC50 [11]: 2.06 µM (active); EC50 [12]: > 60 µM (not active); EC50 [2]: > 50 µM (active)

Q: What does the source list for `OCCN1CCN(CC(O)COc2ccc(C34CC5CC(CC(C5)C3)C4)cc2)CC1` (configuration not stated)?
A: EC50 [13]: > 120 µM (not active); AC50 [14]: 16 µM (active); EC50 [15]: > 120 µM (not active); EC50 [16]: > 120 µM (not active)

Q: Which IC50 (Aminopeptidase N) does the source give for `CS(=O)(=O)N1CCC(C(=O)c2cccc(Cl)c2)CC1` here?
A: Its IC50 is 41.1 µM (active).

Q: Which AC50 (Cytochrome P450 2C9) does the source give for `Nc1ccn([C@@H]2CC[C@H](CO)O2)c(=O)n1` here?
A: Its AC50 is “inconclusive”.

Q: For `COc1ccc(OC)c(S(=O)(=O)N2CCC(C(=O)NCCc3ccc(OC)c(OC)c3)CC2)c1`, which EC50 [2] is on record?
A: Its EC50 is > 50 µM (active).
